Experimental data from paper PMC7321408, “One-Pot Multicomponent Synthesis and Bioevaluation of Tetrahydroquinoline Derivatives as Potential Antioxidants, α-Amylase Enzyme Inhibitors, Anti-Cancerous and Anti-Inflammatory Agents” (Molecules, 2020).
In brackets after ≈: the same amount, converted by molar mass. Several values for one entry are separate records, joined by “and”; a condition that tells them apart may be missing. Equal entries are not always repeated. Where two headings read alike, the source gives them in different places.

Key:
[1] = DPPH free radical scavenging assay; settings: mean ± SEM, n = 3; for IC50 (DPPH radical scavenging): concentration to scavenge 50% of the DPPH radicals
Experimental: The % free radical scavenging activity (%FRSA) of the synthetic compounds was evaluated by the discoloration of an unstable DPPH reagent to the stable yellow-colored 2,2-diphenyl-1-picrylhydrazine molecule by accepting one electron from a donor antioxidant; the mechanism is shown in Scheme 2.
The % FRSA (free radical scavenging activity) of the synthetic compounds was determined by using the method of Tai et al. with slight modifications. The antioxidant potential was determined by detecting the capacity of the synthetic compounds to quench the DPPH free radicals. The synthetic compounds were taken in a 96-well plate at three-fold concentrations of 200 µg/mL, 66.6 µg/mL, 22.2 µg/mL and 7.4 µg/mL. DPPH free radicals were added to entire wells to make up the volume up to 200 µL. DMSO and ascorbic acid were taken as negative and positive controls, respectively. The absorbance was taken at 630nm using a microplate reader (ELx800 BioTek). The percentage of scavenging activity was calculated by the given formula:% scavenging activity = (1 − Abs/Abc) × 100
Abs = sample’s absorbance; Abc = control’s absorbance.

α-amylase enzyme = test: α-Amylase enzyme inhibitory assay; assay type: biochemical
Experimental: An in vitro α-amylase enzyme inhibitory assay was performed by the standard protocol. Four milligrams per 1 mL of sample was prepared in DMSO. In each well of a 96-well plate, synthetic compounds were added to a final concentration of 200 µg/mL. To this, 15 μL phosphate buffer, […] α-amylase enzyme and 40 μL starch solution were added stepwise. The microplate was incubated at 50 °C for 30 min. […] The formula used to calculate the percent enzyme inhibition is:% Enzyme inhibition = [(As − An) ÷ (Ab − An] × 100
As = sample’s absorbance; An = negative’s absorbance; Ab = blank’s absorbance

brine shrimp nauplii = test: Brine shrimp lethality bioassay; assay type: in vivo; settings: 24 h, n = 3
Experimental: Brine shrimp eggs were hatched in a shallow rectangular plastic dish and filled with artificial seawater, which was prepared with a commercial salt mixture. In a 96-well plate, 150 µL of artificial seawater was added and 10 nauplii were added into this. Test compounds (400, 200, 100 and 50 µg/mL) were added into each well and the final volume was made up by adding the artificial seawater. The well plate was left uncovered under a lamp. The number of surviving shrimps were counted and recorded after 24 h. The test was repeated in triplicate. […] The percentage mortality (%M) was also calculated by dividing the number of dead nauplii by the total number and then multiplied by 100.

[2] = MTT cytotoxicity against raw macrophages; assay type: cell-based, albino rats; settings: albino, rat; for viability at 24 h, 1 µM / viability at 24 h, 10 µM / viability at 24 h, 50 µM / viability at 24 h, 100 µM: peritoneal macrophages (raw macrophages), raw macrophages, MTT, read-out: % Cell Viability; for IC50 at 24 h: primary peritoneal macrophages, mean ± SEM, n = 3
Experimental: The % cell viability of the synthetic library was evaluated in vitro by measuring the mitochondrial dehydrogenase activity (MTT test) on raw macrophages.
The cytotoxic potential was assessed by using an MTT 3-(4,5-dimethyl thiazole-2-yl)-2,5- diphenyl tetrazolium bromide assay. Briefly, macrophages were extracted from the peritoneal cavity of albino rats and plated at a density of 1 × 10^6 per well in a 96-well plate and incubated in a 5% CO2 incubator at 37 °C for 24 h. The cells were treated with various concentrations of the test compounds (100 µM, 50 µM, 10 µM and 1 µM) or vehicle alone. The test compounds were first dissolved in DMSO to make a 100 mM stock solution and then further dilutions were made from this stock solution. After 24 h of incubation, 20 µL of MTT (1 mg/mL in normal saline) was added into each well and incubated under the same conditions for 2 h. Mitochondrial succinate dehydrogenase converted MTT in live cells into purple formazan crystals. The formazan crystals were then solubilized in 100 µL DMSO, and the absorbance was measured at 570 nm. The % cell viability was calculated by the following formula; % cell viability = (abssample − absblank)/(abscontrol − absblank) × 100

Hep-2C cells = test: MTT assay against Hep-2C cells; assay type: cell-based, Human; settings: Homo sapiens, Hep2C, read-out: IC50 (Mean ± SEM) Hep-2C Cells
Experimental: Hep-2C cell line experiments were performed in the Immunology Lab of the National Institute of Health (NIH), Islamabad, Pakistan. Human cervix carcinoma cells Hep-2C (ATCC HB-8065) were cultured in Dulbecco’s modified Eagle’s medium (DMEM), comprising 10% fetal calf serum (10% FCS) and supplemented with 2 mM L-glutamine, 100 U/mL penicillin, 100 µg/mL streptomycin and 1 mM Na pyruvate, at 37 °C in a humidified 5% CO2 incubator.
The tetrazolium dye 3-(4, 5-dimethyl thiazolyl-2)-2, 5-diphenyltetrazolium bromide (MTT) was used to assess the cytotoxic potential of the test compounds. In living cells, MTT is reduced into its insoluble purple product formazan, which is measured spectrophotometrically.
Hep-2C cells, in a density of 1 × 10^6 (> 90% cell viability), were cultured in a 96-well plate and treated with different concentrations of the test compounds for 24, 48 and 72 h. Ten microliters of MTT (1 mg per mL) were added per well followed by incubation for 4 h. Insoluble formazan crystals were dissolved by adding 100 µL of DMSO. Cells were then incubated for another 2 h. Absorbance was measured at 570 nm by a microplate reader. Untreated Hep-2C cells were taken as controls and DMSO as a negative. % cell viability = (abssample − absblank)/(abscontrol − absblank) × 100

[3] = system: NO generated by LPS-induced macrophages; test: Nitric oxide assay (Griess) in LPS-induced macrophages; assay type: cell-based, murine; settings: Mus musculus, Macrophage, 18 h, LPS 1 µg/mL, read-out: % NO Production (Mean ± SEM)
Experimental: A Griess reagent, a spectrophotometric determination of nitrite level, was carried out to measure the nitrite level in the conditioned medium of macrophages treated with lipopolysaccharide (LPS). Sodium nitrite (NaNO2) was used as a standard compound for the standard curve (Figure 8). The NO concentrations were obtained using the standard curve equation: y = 0.0083x + 0.0017, R^2 = 0.9999, where y is the absorbance at 540 nm and x is the NO concentration in µM. The inhibitory activity of the tested compounds towards NO generated by LPS-induced macrophages was obtained from the calculated value of x.
The anti-inflammatory effect of the synthesized compounds in murine macrophages was evaluated by using the Griess reaction method, described previously. In brief, 1 × 10^6 were plated in a 96-well plate and incubated in a 5% CO2 incubator at 37 °C for 24 h, pre-treated with different concentrations (100 µM, 50 µM, 10 µM and 1 µM) of synthetic compounds for another 2 h and challenged with LPS (1 µg/mL) for an additional 18 h. Equal volumes of Griess reagent (1% sulphanilamide in 50% phosphoric acid and 0.1% naphthyl ethylenediamine dihydrochloride in distilled water and vortexed) and culture medium were mixed and the absorbance was taken at 540 nm. Lipopolysaccharide (LPS) was taken as a blank and piroxicam was taken as a positive control. A t-test was applied to determine the significance of the results.

[4] = Phosphomolybdenum-based total antioxidant capacity (TAC)
Experimental: In the presence of an antioxidant, the phosphomolybdate ion gets reduced and a green phosphate–molybdate complex is formed, which is analyzed spectrophotometrically.
The total antioxidant capacity was determined by using the phosphomolybdenum-based method. The method is based on the reduction of Mo (VI) to Mo (V), leading to the formation of a green-colored phosphate–molybdenum complex that gives absorption at 630 nm. In 96-well plates, 20 µL of the sample was added with 180 µL TAC reagents in it and incubated at 95 °C for 90 min in a water bath and cooled at room temperature. The results were calculated as µg AAE/mg.

[5] = Total reducing power (TRP) assay
Experimental: A TRP assay was carried out to evaluate the reducing potential of synthetic compounds. The method implicates reductones. These reductones are species with antioxidant potential that is believed to be due to their proton-donating capacity. […] The maximum value of reducing power was 104.7 ± 1.9 µg/AAE for SF5, followed by 103.18 ± 2.4 µg/AAE for SF7 and 84.57 ± 1.9 µg/AAE for SF12 (Figure 3 and Figure 4 (standard curve)).
The assay is based on the reduction of Fe^+3 to Fe^+2. The method described by Khan et al. was used with slight modifications. One hundred microliters of test samples (4 mg/mL DMSO) were taken in an Eppendrof tube and 200 μL of phosphate buffer (0.2 mol/L, pH 6.6) and 250 µL of 1% potassium ferricyanide (K3Fe CN)6) were added. This was allowed to incubate at 50 °C for 20 min. Later on, 200 μL of 10% trichloroacetic acid (TCA) was added to the mixture. The mixture was centrifuged at 3000 rpm at room temperature for 10 min. After centrifugation, 150 µL of supernatant were transferred to microplate with FeCl3 (50 μL, 0.1%) and the absorbance was taken at 630 nm. The results were calculated as µg AAE/mg.

Structure (SMILES)	% DPPH Scavenging Activity ([1]; 7.4 µg/mL)	% DPPH Scavenging Activity ([1]; 22.22 µg/mL)	% DPPH Scavenging Activity ([1]; 66.66 µg/mL)	% DPPH Scavenging Activity ([1]; 200 µg/mL)	IC50 (DPPH radical scavenging) [1]	IC50 (α-amylase) (α-amylase enzyme)	LD50 ± SEM (brine shrimp lethality) (brine shrimp nauplii)	viability at 24 h, 1 µM [2]	viability at 24 h, 10 µM [2]	viability at 24 h, 50 µM [2]	viability at 24 h, 100 µM [2]	IC50 at 24 h [2]	activity at 1 µM [3]	activity at 10 µM [3]	activity at 50 µM [3]	activity at 100 µM [3]	further results
Clc1cccc(NCN2CCCc3ccccc32)c1 [SF8, 3-Chloro-N-((3,4-dihydroquinolin-1(2H)-yl)methyl) aniline]	27.98 ± 0.24%	50.17 ± 0.32%	52.12 ± 0.36%	62.35 ± 0.14%	29.19 ± 0.25 µg/mL (≈ 107 µM)	27.39 ± 1.43 µg/mL (≈ 100 µM)	123.4 ± 1.87 µg/mL	97 ± 1.04%	83 ± 0.78%	68 ± 0.79%	52 ± 1%	21.2 ± 0.33 µM	39.4 ± 0.48%	29.4 ± 0.44%	24.1 ± 0.41%	15 ± 0.33%	IC50 (Hep-2C cells; 24 h): 20.2 ± 1.07 µM; IC50 (Hep-2C cells; 48 h): 15.7 ± 1.08 µM; IC50 (Hep-2C cells; 72 h): 11.9 ± 1.04 µM
Brc1ccc(NCN2CCCc3ccccc32)cc1 [SF9, 4-Bromo-N-((3,4-dihydroquinolin-1(2H)-yl)methyl) aniline]	7.64 ± 0.26%	19.35 ± 0.11%	50.28 ± 0.22%	67.46 ± 0.14%	50.76 ± 0.37 µg/mL (≈ 160 µM)	18.55 ± 0.89 µg/mL (≈ 58.5 µM)	139 ± 0.87 µg/mL	98 ± 0.87%	91 ± 0.91%	84 ± 1.21%	82 ± 0.96%	14.2 ± 0.26 µM	66.97 ± 0.61%	58.54 ± 0.55%	55.6 ± 0.51%	49.07 ± 0.45%	Total antioxidant capacity (TAC) [4]: 179.76 ± 1.6231 µg/AAE; % inhibition of α-amylase enzyme (α-amylase enzyme; 200 µg/mL): 89.93% and 93%
CC(=O)N(CN1CCCc2ccccc21)c1ccccc1 [SF10, N-((3,4-dihydroquinolin-1(2H)-yl)methyl)-N-phenylacetamide]	23.45 ± 0.28%	31.89 ± 0.21%	40.77 ± 0.31%	49.73 ± 0.19%	47.81 ± 0.27 µg/mL (≈ 171 µM)		196.1 ± 1.12 µg/mL	100 ± 0.88%	95 ± 0.93%	80 ± 1.24%	76 ± 1.2%	24.8 ± 0.269 µM	62.4 ± 0.65%	58.5 ± 0.59%	42.5 ± 0.54%	33.84 ± 0.33%	Total reducing power (TRP) [5]: no activity
